Species: Rattus norvegicus
Assay: Open TG-GATES - Regimen: Daily Repeat
Type: toxicity, organism-based, Sprague-Dawley
Parameters: regimen Daily Repeat, gender Male, age 6 weeks
Settings: in vivo, po, 50 mg/kg, route gavage, dose level High; for APTT / Bas / Eos / Fbg / Hb / Ht / Lym / MCH / MCHC / MCV / Mono / Neu / PT / Plat / RBC / Ret / WBC: tissue Blood; for KIDNEY_L / KIDNEY_R / KIDNEY_TOTAL: tissue Kidney; for LIVER: tissue Liver; for A/G / ALP / ALT / AST / BUN / CRE / Ca / Cl / DBIL / GLC / IP / K / LDH / Na / PL / RALB / TBIL / TC / TG / TP / gamma-GTP: tissue Plasma

Q: Which results are given for `CC1=C(CC(=O)O)c2cc(F)ccc2/C1=C\c1ccc([S+](C)[O-])cc1` (configuration not stated)?
A: TERMINAL_BW (72 h, time 3 day): 223.6 g; APTT (72 h, time 3 day): 18.5 s; Bas (72 h, time 3 day): 0.2%; Eos (72 h, time 3 day): 1.2%; Fbg (72 h, time 3 day): 396.2 mg/dL; Hb (72 h, time 3 day): 13.9 g/dL; Ht (72 h, time 3 day): 41.6%; Lym (72 h, time 3 day): 71.2%; MCH (72 h, time 3 day): 20.7 pg; MCHC (72 h, time 3 day): 33.3%; MCV (72 h, time 3 day): 62.3 fL; Mono (72 h, time 3 day): 3.4%; Neu (72 h, time 3 day): 24%; PT (72 h, time 3 day): 13.3 s; Plat (72 h, time 3 day): 112.6 x10_4/uL; RBC (72 h, time 3 day): 668 x10_4/ul; Ret (72 h, time 3 day): 6%; WBC (72 h, time 3 day): 137.2 x10_2/uL; KIDNEY_L (72 h, time 3 day): 1 g; KIDNEY_R (72 h, time 3 day): 1 g; KIDNEY_TOTAL (72 h, time 3 day): 2 g; LIVER (72 h, time 3 day): 11 g; A/G (72 h, time 3 day): 0.9; ALP (72 h, time 3 day): 1504.6 IU/L; ALT (72 h, time 3 day): 38.2 IU/L; AST (72 h, time 3 day): 63 IU/L; BUN (72 h, time 3 day): 15.6 mg/dL; CRE (72 h, time 3 day): 0.2 mg/dL; Ca (72 h, time 3 day): 11 mg/dL; Cl (72 h, time 3 day): 106.8 meq/L; DBIL (72 h, time 3 day): 0.008 mg/dL; GLC (72 h, time 3 day): 178.4 mg/dL; IP (72 h, time 3 day): 6.5 mg/dL; K (72 h, time 3 day): 4.2 meq/L; LDH (72 h, time 3 day): 96.4 IU/L; Na (72 h, time 3 day): 141.8 meq/L; PL (72 h, time 3 day): 164.4 mg/dL; RALB (72 h, time 3 day): 2.6 g/dL; TBIL (72 h, time 3 day): 0.016 mg/dL; TC (72 h, time 3 day): 91.2 mg/dL; TG (72 h, time 3 day): 129.8 mg/dL; TP (72 h, time 3 day): 5.4 g/dL; gamma-GTP (72 h, time 3 day): 1.2 IU/L; TERMINAL_BW ([…], time 7 day): 211.2 g; TERMINAL_BW ([…], time 14 day): 263.8 g; TERMINAL_BW ([…], time 28 day): 295.9 g; APTT ([…], time 7 day): 16.7 s; Bas ([…], time 7 day): 0.6%; Eos ([…], time 7 day): 1.2%; Fbg ([…], time 7 day): 522.6 mg/dL; Hb ([…], time 7 day): 11.5 g/dL; Ht ([…], time 7 day): 35.1%; Lym ([…], time 7 day): 55%; MCH ([…], time 7 day): 20.8 pg; MCHC ([…], time 7 day): 32.8%; MCV ([…], time 7 day): 63.4 fL; Mono ([…], time 7 day): 3.8%; Neu ([…], time 7 day): 38.8%; PT ([…], time 7 day): 13 s; Plat ([…], time 7 day): 252.7 x10_4/uL; RBC ([…], time 7 day): 553.6 x10_4/ul; Ret ([…], time 7 day): 11.8%; WBC ([…], time 7 day): 207.1 x10_2/uL; APTT ([…], time 14 day): 25.1 s; Bas ([…], time 14 day): 0%; Eos ([…], time 14 day): 1.7%; Fbg ([…], time 14 day): 447 mg/dL; Hb ([…], time 14 day): 10.8 g/dL; Ht ([…], time 14 day): 33.6%; Lym ([…], time 14 day): 56%; MCH ([…], time 14 day): 20.6 pg; MCHC ([…], time 14 day): 31.6%; MCV ([…], time 14 day): 65.2 fL; Mono ([…], time 14 day): 4%; Neu ([…], time 14 day): 37%; PT ([…], time 14 day): 13.3 s; Plat ([…], time 14 day): 243.4 x10_4/uL; RBC ([…], time 14 day): 517.7 x10_4/ul; Ret ([…], time 14 day): 16.3%; WBC ([…], time 14 day): 216.8 x10_2/uL; APTT ([…], time 28 day): 18.9 s; Bas ([…], time 28 day): 0%; Eos ([…], time 28 day): 1.7%; Fbg ([…], time 28 day): 577 mg/dL; Hb ([…], time 28 day): 10.2 g/dL; Ht ([…], time 28 day): 34.4%; Lym ([…], time 28 day): 51.7%; MCH ([…], time 28 day): 18.1 pg; MCHC ([…], time 28 day): 29.3%; MCV ([…], time 28 day): 61.7 fL; Mono ([…], time 28 day): 4.7%; Neu ([…], time 28 day): 41%; PT ([…], time 28 day): 11.9 s; Plat ([…], time 28 day): 221.3 x10_4/uL; RBC ([…], time 28 day): 561.3 x10_4/ul; Ret ([…], time 28 day): 16.6%; WBC ([…], time 28 day): 217.4 x10_2/uL; KIDNEY_L ([…], time 7 day): 1 g; KIDNEY_R ([…], time 7 day): 1 g; KIDNEY_TOTAL ([…], time 7 day): 2 g; KIDNEY_L ([…], time 14 day): 1.1 g; KIDNEY_R ([…], time 14 day): 1.1 g; KIDNEY_TOTAL ([…], time 14 day): 2.2 g; KIDNEY_L ([…], time 28 day): 1.3 g; KIDNEY_R ([…], time 28 day): 1.2 g; KIDNEY_TOTAL ([…], time 28 day): 2.5 g; LIVER ([…], time 7 day): 10.6 g; LIVER ([…], time 14 day): 13.4 g; LIVER ([…], time 28 day): 15.2 g; A/G ([…], time 7 day): 0.9; ALP ([…], time 7 day): 1360.6 IU/L; ALT ([…], time 7 day): 24.4 IU/L; AST ([…], time 7 day): 64 IU/L; BUN ([…], time 7 day): 39.8 mg/dL; CRE ([…], time 7 day): 0.3 mg/dL; Ca ([…], time 7 day): 10.6 mg/dL; Cl ([…], time 7 day): 104 meq/L; DBIL ([…], time 7 day): 0.032 mg/dL; GLC ([…], time 7 day): 154.2 mg/dL; IP ([…], time 7 day): 7.5 mg/dL; K ([…], time 7 day): 4.3 meq/L; LDH ([…], time 7 day): 96.8 IU/L; Na ([…], time 7 day): 141 meq/L; PL ([…], time 7 day): 157.6 mg/dL; RALB ([…], time 7 day): 2.4 g/dL; TBIL ([…], time 7 day): 0.066 mg/dL; TC ([…], time 7 day): 78.8 mg/dL; TG ([…], time 7 day): 104.2 mg/dL; TP ([…], time 7 day): 5.1 g/dL; gamma-GTP ([…], time 7 day): 5 IU/L; A/G ([…], time 14 day): 0.9; ALP ([…], time 14 day): 806 IU/L; ALT ([…], time 14 day): 28.7 IU/L; AST ([…], time 14 day): 49.3 IU/L; BUN ([…], time 14 day): 18.3 mg/dL; CRE ([…], time 14 day): 0.3 mg/dL; Ca ([…], time 14 day): 10.5 mg/dL; Cl ([…], time 14 day): 106.3 meq/L; DBIL ([…], time 14 day): 0.0133 mg/dL; GLC ([…], time 14 day): 156.3 mg/dL; IP ([…], time 14 day): 5.3 mg/dL; K ([…], time 14 day): 4.5 meq/L; LDH ([…], time 14 day): 74 IU/L; Na ([…], time 14 day): 141.7 meq/L; PL ([…], time 14 day): 203 mg/dL; RALB ([…], time 14 day): 2.5 g/dL; TBIL ([…], time 14 day): 0.03 mg/dL; TC ([…], time 14 day): 96.7 mg/dL; TG ([…], time 14 day): 326.7 mg/dL; TP ([…], time 14 day): 5.4 g/dL; gamma-GTP ([…], time 14 day): 1.7 IU/L; A/G ([…], time 28 day): 0.8; ALP ([…], time 28 day): 657 IU/L; ALT ([…], time 28 day): 23.3 IU/L; AST ([…], time 28 day): 47.3 IU/L; BUN ([…], time 28 day): 18.3 mg/dL; CRE ([…], time 28 day): 0.3 mg/dL; Ca ([…], time 28 day): 10 mg/dL; Cl ([…], time 28 day): 103 meq/L; DBIL ([…], time 28 day): 0.0067 mg/dL; GLC ([…], time 28 day): 149.3 mg/dL; IP ([…], time 28 day): 7 mg/dL; K ([…], time 28 day): 3.8 meq/L; LDH ([…], time 28 day): 92 IU/L; Na ([…], time 28 day): 141.7 meq/L; PL ([…], time 28 day): 181.7 mg/dL; RALB ([…], time 28 day): 2.3 g/dL; TBIL ([…], time 28 day): 0.06 mg/dL; TC ([…], time 28 day): 88.7 mg/dL; TG ([…], time 28 day): 261.7 mg/dL; TP ([…], time 28 day): 5.1 g/dL; gamma-GTP ([…], time 28 day): 1.7 IU/L

— ChEMBL document CHEMBL3885861, “Open TG-GATES”
